Source: patent publication US20150368617A1, “METHOD FOR FORMING ENDOTHELIAL CELLS” (Korea Advanced Institute of Science and Technology (KAIST), priority 2012, published 2015)

Columns and labels:
ICAM2+ ECs = assay: Expansion of purified ICAM2+ ECs for 2 days in 2D Matrigel system; assay type: cell-based, mouse
Procedure: FIGS. 14A-14G. ROCK suppression continuously promotes the expansion of ECs. (FIG. 14A) ICAM2+ ECs were further incubated with PBS (Control), Y27632 (10┌ M), VEGF-A (50 ng/ml; VA) or Y27632 (10┌ M) plus VEGF-A (50 ng/ml) for 2 days, and analyses were performed at day 8.5. (FIG. 14B) Immunofluorescence images showing CD144+ EC colonies, ┌ SMA+MCs, and DAPI+ nuclei. Scale bars represent 100┌ m. (FIG. 14C) Representative FACS analysis of CD31+/CD144+ ECs. (FIG. 14D) % of CD31+/CD144+ EC population. Each group, n=3. *p<0.01 versus Control. (FIG. 14E) Relative cell number of ICAM2+ ECs. Each group, n=3. *p<0.01 versus Control; ^#p<0.01 versus VEGF-A. (FIG. 14F) Relative population of CD31+/CD144+ ECs. Population of CD31+/CD144+ ECs grown without VEGF-A and Y27632 was regarded as 100%. Each group, n=3. *p<0.01 versus Control; ^#p<0.01 versus VEGF-A. (FIG. 14G) % of adherent ICAM2+ECs onto plate at 6 hrs. Each group, n=3. *p<0.05 versus VEGF-A.
E14tg2a ESC cell line was a generous gift from Dr. Jun K. Yamashita (Kyoto University), and R1 ESC cell line was purchased from American Type Cell Culture. Mouse iPSC derived from FVB strain was a generous gift from Drs. Hyun-Jai Cho and Hyo-Soo Kim (Seoul National University Hospital). […]

Flk1+ MPCs = assay: Differentiation of MCs from Flk1+ MPCs, FACS of αSMA+ MCs; assay type: cell-based, mouse; settings: Y27632 10 μM; ML7 5 μM
Procedure: FIGS. 11A-11D. ROCK suppression promotes the differentiation of ECs through PTEN-Akt signaling and inhibits the differentiation of MCs through MyPT-MLC signaling. (FIG. 11A) Representative FACS analysis of CD31+/CD144+ ECs incubated with 0.1% DMSO or LY294002 (20┌ M; LY) in the presence of PBS (Control) or Y27632 (10┌ M; Y). (FIG. 11B) % of CD31+/CD144+ EC population. Each group, n=3. *p<0.01 versus 0. Each group, n=3. *p<0.01 versus DMSO; ^#p<0.01 versus Y27632. (FIG. 11C) Representative FACS analysis of ┌ SMA+MCs or CD144+ ECs incubated with 0.1% DMSO or ML7 (5 ┌ M) in the presence of PBS (Control) or Y27632 (10┌ M). (FIG. 11D) % of ┌ SMA+MC population. Each group, n=3. *p<0.01 versus 0. Each group, n=3. *p<0.01 versus DMSO. n.s. represents statistically non-significant.
Analysis and sorting for CMs were performed at day 10.5. We harvested differentiated Flk1+ MPCs on OP9 cells with 0.25% trypsin-EDTA or dissociation buffer (Invitrogen). Cardiac troponin-T (cTnT)+ and ┌ smooth muscle actin (SMA)+ cells were analyzed after permeabilization using Cytofix/Cytoperm solution (BD Biosciences) for 15 min. After permeabilization, the cells were incubated for 30 min with anti-mouse cTnT (NeoMarkers) monoclonal antibody. […] Data were analyzed using FlowJo Version 7.5.4 software (TreeStar).

## C[C@@H](N)[C@H]1CC[C@H](C(=O)Nc2ccncc2)CC1 [Y27632]
ICAM2+ ECs; day 8.5, agent alone, ˜30% without either agent
  decrease of CD31+/CD144+ EC population from the initial population of ˜90%: ~22%
ICAM2+ ECs; day 8.5, compared to Control without VEGF-A and Y27632
  increase of total cell number: ~1.8 fold
Flk1+ MPCs
  reduction of αSMA+MC population: ~83%
